{"source": "patent US20230228744A1", "about": "“DRY EYE DISEASE BIOMARKERS AND THEIR USE FOR TREATMENT” (Aldeyra Therapeutics, Inc., priority 2020, published 2023)", "key": {"[1]": {"tested_on": "malondialdehyde (MDA) adducts in tears", "assay": "Phase 2a clinical study, MDA adduct competitive ELISA in tears", "assay_type": "in vivo, human", "conditions": "28 days (4 weeks) of treatment, pooled reproxalap groups", "text": "The study was to assess levels of malondialdehyde (MDA) adducts in tears collected from subjects with dry eye disease enrolled in a Phase 2a, randomized, double-masked, clinical study to assess the safety, tolerability, and pharmacodynamic activity of ADX-102 ophthalmic solution in subjects with dry eye diseases, also referred to herein as dry eye syndrome (DES).\nTears were collected during Visit 1, prior to treatment, and during Visit 3, following four weeks of treatment. Treatment groups consisted of ADX-102 Ophthalmic Solution (0.5%), ADX-102 Ophthalmic Solution (0.1%), and ADX-102 Ophthalmic Lipid Solution (0.5%). […]\nThe assay is a competitive ELISA. […] The plate is read in a microplate reader at 450 nm. The assay OD reading decreases with increasing MDA adducts in the samples, as the adsorbed MDA competes for binding to the MDA antibody with MDA adducts in the test sample. […]\nDES Study Samples. Based on the results of the pilot assay, a 1:60 dilution was determined to maximize the likelihood of the OD values falling within the linear portion of the standard curve, and thus provide the most accurate results. All tear samples from subjects (0.5% ADX-102 Ophthalmic Solution) and (0.1% ADX-102 Ophthalmic Solution) were analyzed, but results from some tear samples were excluded from the data analysis due to contamination with ocular staining dye in the Visit 3 samples. […]"}, "[2]": {"tested_on": "dry eye disease patients", "assay": "Phase 3 clinical trial (RENEW-Part 1), VAS ocular dryness score over 12-week chronic treatment", "assay_type": "in vivo, human", "conditions": "0.25% reproxalap, 12-week treatment, as early as one week after treatment initiation", "text": "Treatment Difference of induction-maintenance dosing, defined as the difference between the changes from baseline for the evaluated drug vs. vehicle (LS Mean Difference ±95% CI). Ocular Dryness Score co-primary endpoint assessed in pre-specified patient population having an OD4S dryness baseline score of ≥3 (N=170). […] […] Source: Reproxalap RENEW-Part 1 clinical trial results and TRANQUILITY Run-In Cohort initial results. VAS=Visual Analog Scale; OD4S=Ocular Discomfort & 4-Symptom; CAC=Conjunctival Allergen Challenge; MMRM=Mixed Effect Model Repeated Measures."}}, "note": "“Also recorded” adds a separate entry of the source."}
{"smiles": "CC(C)(O)c1nc2ccc(Cl)cc2cc1N", "note": "[reproxalap, Reproxalap]", "values": [{"measurement": "tear MDA adduct / RASP levels after treatment relative to baseline (pooled groups)", "setting": "[1]", "value": "reduction in tear RASP levels; also recorded: statistically lower"}, {"measurement": "symptom improvements over vehicle (VAS ocular dryness score and multiple symptoms)", "setting": "[2]", "value": "statistically significant symptom improvements"}]}
